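Grown in 96-well plates, cells were treated for 48 hours with each compound at five concentrations. Insufficient inhibition: endpoint recorded as highest concentration tested. The concentration for 50% growth inhibition is given as GI50.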 Activity calls are given as the source filed them. Rule as the data show it: active = GI50 up to about 1.1 µM and inactive = higher.
Experiments:
Test in all cases: inhibition of tumour cell growth, NCI panel, 48 h
LXFL 529 = system: LXFL 529
NCI/ADR-RES = system: NCI/ADR-RES
MDA-MB-231 = system: MDA-MB-231
HCT-116 = system: HCT-116
MDA-MB-435 = system: MDA-MB-435
HOP-92 = system: HOP-92
A498 = system: A498
COLO 205 = system: COLO 205
NCI-H226 = system: NCI-H226
OVCAR-4 = system: OVCAR-4
EKVX = system: EKVX
T47D = system: T47D
SN12C = system: SN12C
OVCAR-5 = system: OVCAR-5
SK-OV-3 = system: SK-OV-3
NCI-H460 = system: NCI-H460
NCI-H23 = system: NCI-H23
MCF7 = system: MCF7
RPMI-8226 = system: RPMI-8226
HOP-62 = system: HOP-62

Structure (SMILES) | GI50 (LXFL 529) | GI50 (NCI/ADR-RES) | GI50 (MDA-MB-231) | GI50 (HCT-116) | GI50 (MDA-MB-435) | GI50 (HOP-92) | GI50 (A498) | GI50 (COLO 205) | GI50 (NCI-H226) | GI50 (OVCAR-4) | GI50 (EKVX) | GI50 (T47D) | GI50 (SN12C) | GI50 (OVCAR-5) | GI50 (SK-OV-3) | GI50 (NCI-H460) | GI50 (NCI-H23) | GI50 (MCF7) | GI50 (RPMI-8226) | GI50 (HOP-62)
CCOC(=O)N1C/C(=C\c2ccccc2)C(=O)/C(=C/c2ccccc2)C1 | 4.99 µM (inactive) | 9.12 µM (inactive) | 2.24 µM (inactive) | 1.14 µM (inactive) | 2.48 µM (inactive) | 6.56 µM (inactive) | 18 µM (inactive) | 4.7 µM (inactive) | 4.56 µM (inactive) | 2.37 µM (inactive) | 10.6 µM (inactive) | 3.65 µM (inactive) | 2.17 µM (inactive) | 6.04 µM (inactive) | 9.2 µM (inactive) | 4 µM (inactive) | 5.31 µM (inactive) | 0.955 µM (active) | 0.182 µM (active) | 4.41 µM (inactive)
C=C(COC(C)=O)CC(OC(C)=O)c1ccccc1 (configuration not stated) | > 100 µM (inactive) |  |  | > 100 µM (inactive) |  | > 100 µM (inactive) | > 100 µM (inactive) | > 100 µM (inactive) | > 100 µM (inactive) | > 100 µM (inactive) | > 100 µM (inactive) |  | > 100 µM (inactive) | > 100 µM (inactive) | > 100 µM (inactive) | > 100 µM (inactive) | > 100 µM (inactive) |  | > 100 µM (inactive) | > 100 µM (inactive)
O=C1NC(=S)NC(=O)C1=Cc1ccc([N+](=O)[O-])o1 | 16.5 µM (inactive) |  |  | 15 µM (inactive) |  | 20.7 µM (inactive) | > 100 µM (inactive) | 20.2 µM (inactive) | > 100 µM (inactive) | 17.3 µM (inactive) | 21.1 µM (inactive) |  | 16.3 µM (inactive) | 20.3 µM (inactive) | > 100 µM (inactive) | > 100 µM (inactive) | 16.9 µM (inactive) |  | 20.3 µM (inactive) | > 100 µM (inactive)
COc1cc(/C=N/N=C(\N)NO)c(Cl)cc1O | > 100 µM (inactive) |  |  | 38.6 µM (inactive) |  | 4.97 µM (inactive) | 99.8 µM (inactive) | 38.2 µM (inactive) | 81.5 µM (inactive) | 43.8 µM (inactive) | 43.8 µM (inactive) |  | 58.2 µM (inactive) | 46.7 µM (inactive) | 85.9 µM (inactive) | > 10 µM (inactive) | 35.5 µM (inactive) |  | > 100 µM (inactive) | 
O=C1CC(CC(=O)C2CCCCC2=O)C(=O)N1 (configuration not stated) | > 100 µM (inactive) |  |  | > 100 µM (inactive) |  | > 100 µM (inactive) | > 100 µM (inactive) | > 100 µM (inactive) | > 100 µM (inactive) | > 100 µM (inactive) | > 100 µM (inactive) |  | > 100 µM (inactive) | > 100 µM (inactive) | > 100 µM (inactive) | > 100 µM (inactive) | > 100 µM (inactive) |  | > 100 µM (inactive) | > 100 µM (inactive)
COc1ccc(-c2oc3c(OC)c(OC)c(OC)c(O)c3c(=O)c2OC)cc1O | 0.0582 µM (active) |  |  | 0.0783 µM (active) |  | < 0.01 µM (active) | 1.6 µM (inactive) | 11.1 µM (inactive) | 0.0612 µM (active) | 9.23 µM (inactive) | 0.836 µM (active) |  | 0.0641 µM (active) | 5.4 µM (inactive) | 0.139 µM (active) | 0.126 µM (active) | 0.254 µM (active) |  | 0.121 µM (active) | 0.403 µM (active)
C/C(=C\Cc1cc(O)ccc1O)CCc1c(C)cc(O)c(C=O)c1C [PANICEIN B3] | 15.4 µM (inactive) |  |  | 19.3 µM (inactive) |  | 18.9 µM (inactive) | 40.3 µM (inactive) | 17.7 µM (inactive) | 22.5 µM (inactive) | 26.4 µM (inactive) | 31.1 µM (inactive) |  | 28.2 µM (inactive) |  | 32.7 µM (inactive) | 24.3 µM (inactive) | 22.5 µM (inactive) |  | > 100 µM (inactive) | 
O=C(/C=C/c1ccc(Cl)c(Cl)c1)c1ccccc1Cl | 7.41 µM (inactive) |  |  | 4.71 µM (inactive) |  | 16.7 µM (inactive) | 17 µM (inactive) | 16.1 µM (inactive) | 16.6 µM (inactive) | 14.1 µM (inactive) | 17.3 µM (inactive) |  | 16.6 µM (inactive) | 16.8 µM (inactive) | 24.4 µM (inactive) | 11.6 µM (inactive) | 13.4 µM (inactive) |  | 8.49 µM (inactive) | 18.7 µM (inactive)
